Assay results as given in ChEMBL document CHEMBL1201862, “PubChem BioAssay data set” (2004).
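Values below derive from 48-hour exposures of cells grown in 96-well plates, with endpoints linearly interpolated between the two concentrations bracketing the appropriate inhibition level. GI50: concentration for 50% inhibition of growth.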 The source made the active and inactive calls. No stated cut-off is given here; in the data, active = GI50 up to about 1.1 µM and inactive = higher.

Assays:
Test in all cases: inhibition of tumour cell growth, NCI panel, 48 h
UACC-257 = system: UACC-257
K562 = system: K562
IGROV-1 = system: IGROV-1
SNB-19 = system: SNB-19
BT-549 = system: BT-549
SK-MEL-28 = system: SK-MEL-28
HCC 2998 = system: HCC 2998
M14 = system: M14
PC-3 = system: PC-3
MOLT-4 = system: MOLT-4
DU-145 = system: DU-145
T47D = system: T47D
SN12C = system: SN12C
HCT-15 = system: HCT-15
MDA-N = system: MDA-N
Hs-578T = system: Hs-578T
U-251 = system: U-251
MCF7 = system: MCF7
NCI-H522 = system: NCI-H522
HCT-116 = system: HCT-116
NCI-H226 = system: NCI-H226
A549 = system: A549
SF-268 = system: SF-268
OVCAR-8 = system: OVCAR-8
SW-620 = system: SW-620
HT-29 = system: HT-29
786-0 = system: 786-0
SNB-75 = system: SNB-75
NCI-H460 = system: NCI-H460
HL-60 = system: HL-60
Malme-3M = system: Malme-3M
KM12 = system: KM12
SK-MEL-5 = system: SK-MEL-5
RXF 393 = system: RXF 393
OVCAR-4 = system: OVCAR-4
HOP-62 = system: HOP-62
SF-295 = system: SF-295
SK-MEL-2 = system: SK-MEL-2
RPMI-8226 = system: RPMI-8226
LOX IMVI = system: LOX IMVI
A498 = system: A498
NCI/ADR-RES = system: NCI/ADR-RES
SF-539 = system: SF-539
SR = system: SR
CCRF-CEM = system: CCRF-CEM
CAKI-1 = system: CAKI-1
OVCAR-3 = system: OVCAR-3
MDA-MB-435 = system: MDA-MB-435
COLO 205 = system: COLO 205
NCI-H23 = system: NCI-H23
MDA-MB-231 = system: MDA-MB-231
UO-31 = system: UO-31
EKVX = system: EKVX
ACHN = system: ACHN
TK-10 = system: TK-10
UACC-62 = system: UACC-62
SK-OV-3 = system: SK-OV-3
OVCAR-5 = system: OVCAR-5

`O=C1Nc2ccccc2/C1=N/Nc1ccccc1Cl` was tested, and the GI50 (UACC-257) was 35.3 µM (inactive), the GI50 (K562) was 43.5 µM (inactive) and the GI50 (IGROV-1) was 1.78 µM (inactive). For the same molecule, the GI50 (SNB-19) was 29.8 µM (inactive), the GI50 (BT-549) was > 100 µM (inactive) and the GI50 (SK-MEL-28) was > 100 µM (inactive). For the same molecule, the GI50 (HCC 2998) was 81.1 µM (inactive), the GI50 (M14) was 96.2 µM (inactive) and the GI50 (PC-3) was > 100 µM (inactive). The GI50 (MOLT-4) was 75.2 µM (inactive), the GI50 (DU-145) was 70 µM (inactive) and the GI50 (T47D) was 12.5 µM (inactive). The GI50 (SN12C) was 21.7 µM (inactive), the GI50 (HCT-15) was greater than 100 µM and the GI50 (MDA-N) was 95.5 µM (inactive). For the same molecule, the GI50 (Hs-578T) was 22.3 µM (inactive), the GI50 (U-251) was 17.6 µM (inactive) and the GI50 (MCF7) was > 100 µM (inactive). The GI50 (NCI-H522) was 37.8 µM (inactive), the GI50 (HCT-116) was 23.7 µM (inactive) and the GI50 (NCI-H226) was 53.2 µM (inactive). For the same molecule, the GI50 (A549) was 45.7 µM (inactive), the GI50 (SF-268) was 29.8 µM (inactive) and the GI50 (OVCAR-8) was 20.6 µM (inactive). For the same molecule, the GI50 (SW-620) was > 100 µM (inactive), the GI50 (HT-29) was > 100 µM (inactive) and the GI50 (786-0) was 10.6 µM (inactive). The GI50 (SNB-75) was 22.1 µM (inactive), the GI50 (NCI-H460) was 18.2 µM (inactive) and the GI50 (HL-60) was 68.1 µM (inactive). The GI50 (Malme-3M) was 77.3 µM (inactive), the GI50 (KM12) was 63.1 µM (inactive) and the GI50 (SK-MEL-5) was 68.5 µM (inactive). For the same molecule, the GI50 (RXF 393) was 34.8 µM (inactive), the GI50 (OVCAR-4) was 3.57 µM (inactive) and the GI50 (HOP-62) was 11.1 µM (inactive). The GI50 (SF-295) was 32.1 µM (inactive), the GI50 (SK-MEL-2) was 63.5 µM (inactive) and the GI50 (RPMI-8226) was 64.9 µM (inactive). The GI50 (LOX IMVI) was 69 µM (inactive), the GI50 (A498) was 18.7 µM (inactive) and the GI50 (NCI/ADR-RES) was 44.6 µM (inactive). For the same molecule, the GI50 (SF-539) was 29 µM (inactive), the GI50 (SR) was 7.62 µM (inactive) and the GI50 (CCRF-CEM) was 45.9 µM (inactive). For the same molecule, the GI50 (CAKI-1) was 15.7 µM (inactive), the GI50 (OVCAR-3) was 26.6 µM (inactive) and the GI50 (MDA-MB-435) was > 100 µM (inactive). For the same molecule, the GI50 (COLO 205) was 24.9 µM (inactive), the GI50 (NCI-H23) was 42.8 µM (inactive) and the GI50 (MDA-MB-231) was 10.3 µM (inactive). The GI50 (UO-31) was 18.7 µM (inactive), the GI50 (EKVX) was 14.5 µM (inactive) and the GI50 (ACHN) was 3.58 µM (inactive). The GI50 (TK-10) was 5.41 µM (inactive), the GI50 (UACC-62) was 89.3 µM (inactive) and the GI50 (SK-OV-3) was 16.1 µM (inactive). For the same molecule, the GI50 (OVCAR-5) was 51.8 µM (inactive).
In the case of `CSc1c(C(=O)Nc2ccccc2)c(N)nn1-c1ccccc1`, the GI50 (UACC-257) is reported as > 100 µM (inactive), the GI50 (K562) is reported as > 100 µM (inactive) and the GI50 (SNB-19) is reported as > 100 µM (inactive). For the same molecule, the GI50 (BT-549) was > 100 µM (inactive), the GI50 (SK-MEL-28) was > 100 µM (inactive) and the GI50 (HCC 2998) was > 100 µM (inactive). For the same molecule, the GI50 (M14) was > 100 µM (inactive), the GI50 (PC-3) was > 100 µM (inactive) and the GI50 (MOLT-4) was > 100 µM (inactive). The GI50 (DU-145) was > 100 µM (inactive), the GI50 (T47D) was > 100 µM (inactive) and the GI50 (SN12C) was > 100 µM (inactive). For the same molecule, the GI50 (HCT-15) was greater than 100 µM, the GI50 (MDA-N) was > 100 µM (inactive) and the GI50 (Hs-578T) was > 100 µM (inactive). For the same molecule, the GI50 (U-251) was > 100 µM (inactive), the GI50 (MCF7) was > 100 µM (inactive) and the GI50 (HCT-116) was > 100 µM (inactive). The GI50 (NCI-H226) was > 100 µM (inactive), the GI50 (A549) was > 100 µM (inactive) and the GI50 (SF-268) was > 100 µM (inactive). For the same molecule, the GI50 (OVCAR-8) was > 100 µM (inactive), the GI50 (SW-620) was > 100 µM (inactive) and the GI50 (HT-29) was > 100 µM (inactive). For the same molecule, the GI50 (786-0) was > 100 µM (inactive), the GI50 (SNB-75) was > 100 µM (inactive) and the GI50 (NCI-H460) was > 100 µM (inactive). For the same molecule, the GI50 (HL-60) was > 100 µM (inactive), the GI50 (Malme-3M) was > 100 µM (inactive) and the GI50 (KM12) was > 100 µM (inactive). The GI50 (SK-MEL-5) was > 100 µM (inactive), the GI50 (RXF 393) was 56.9 µM (inactive) and the GI50 (OVCAR-4) was > 100 µM (inactive). For the same molecule, the GI50 (SK-MEL-2) was > 100 µM (inactive), the GI50 (RPMI-8226) was > 100 µM (inactive) and the GI50 (LOX IMVI) was > 100 µM (inactive). For the same molecule, the GI50 (A498) was > 100 µM (inactive), the GI50 (NCI/ADR-RES) was > 100 µM (inactive) and the GI50 (SF-539) was > 100 µM (inactive). For the same molecule, the GI50 (SR) was > 100 µM (inactive), the GI50 (CCRF-CEM) was > 100 µM (inactive) and the GI50 (CAKI-1) was > 100 µM (inactive). For the same molecule, the GI50 (OVCAR-3) was > 100 µM (inactive), the GI50 (MDA-MB-435) was > 100 µM (inactive) and the GI50 (COLO 205) was > 100 µM (inactive). The GI50 (NCI-H23) was > 100 µM (inactive), the GI50 (MDA-MB-231) was > 100 µM (inactive) and the GI50 (UO-31) was 67.9 µM (inactive). The GI50 (EKVX) was > 100 µM (inactive), the GI50 (TK-10) was > 100 µM (inactive) and the GI50 (UACC-62) was > 100 µM (inactive). The GI50 (SK-OV-3) was > 100 µM (inactive) and the GI50 (OVCAR-5) was > 100 µM (inactive).
